Broadly, the melting point is the temperature of the solid-liquid transition. As a reminder, the inhibition is the change of the read-out against control, counted positive when it falls.

In data set [1] the test system is TCC97-7 bladder cancer cells carrying the Ser249Cys mutation of FGF receptor 3. As to the kind of experiment: Reduction of intracellular ATP content of TCC97-7 cells (Cell Titer-Glo, 3 days, serum-supplemented medium). The class given is cell-based. The settings on record: 72 h, TCC97-7 cells in presence of serum, read-out: Inhibition of the amount of intracellular ATP (%). On the procedure:
Evaluation of the Capacity of the FGF-R Antagonists to Reduce the ATP Content of TCC97-7 Bladder Cancer Cells Carrying the Ser249Cys Mutation of FGF Receptor 3, Cultured in a Serum-Supplemented Medium
To do this, 3000 cells are seeded in 50 μl of complete medium (Ham-F/12, 1% FCS, […], non-essential amino acids, sodium pyruvate, 1% insulin/transferrin/selenium, hydrocortisone). 16 hours later, 50 μl of the various compounds are added at 0.2, 2, 20 and 60 μM after dilution in complete culture medium in order to obtain final concentrations of 0.1, 1, 10 and 30 μM. After 3 days, the ATP content of the cells is measured using the Cell Titer-Glo® Luminescent Cell Viability Assay kit (Promega, France) according to the supplier's recommendations. The percentage inhibition of the amount of intracellular ATP is calculated by considering the ATP content of the cells cultured in the absence of antagonist to be 0% inhibition. 100% inhibition would correspond to a well in which the ATP content is zero.
Background: In ATP-based viability assays light output follows the ATP content of the culture.

A short description of data set [2]: Cytotoxic effect: percentage of permeabilized (very fluorescent, Hoechst 33342) TCC97-7 cells. The class given is cell-based. The conditions noted are these: human, read-out: Cytotoxicity (% of permeable cells). On the procedure:
In parallel to their antiproliferative capacity, the potential cytotoxic effect of the FGF-R antagonists is measured by means of quantifying the number of cells of which the membranes are permeabilized. The appearance of pores in the plasma membrane of the cells corresponds to a state of cell death which enables the Hoechst 33342 to penetrate more easily into the cell. This is reflected by a very strong increase in the amount of fluorescence detected in the nuclei. The percentage of cells in a state of cell death is calculated by the ratio between the number of very fluorescent nuclei to the total number of nuclei, multiplied by 100. The observations are carried out in the same way as the quantification of the nuclei for the cell proliferation.

Data set [3] relates to TCC97-7 bladder cancer tumour cells carrying the Ser249Cys mutation of FGF receptor 3. As to the kind of experiment: Inhibition of serum-induced proliferation of TCC97-7 bladder cancer cells (count of Hoechst 33342-labelled nuclei after 3 days). It is filed as cell-based. The settings on record: 72 h, TCC97-7 cells in presence of serum. On the procedure:
To do this, 2000 cells are seeded in the morning in 50 μl of complete medium (Ham-F/12, 1% FCS, 2 mM glutamine, non-essential amino acids, sodium pyruvate, 1% insulin/transferrin/selenium, hydrocortisone). In the evening, 50 μl of the various compounds are added at 0.02, 0.2, 2 or 20 μM after dilution in complete culture medium in order to obtain final concentrations of 0.01, 0.1, 1 and 10 μM. After 3 days, the cell proliferation is evaluated by measuring the number of nuclei at the bottom of each well corresponding to a number of cells. The nuclei are detected by means of labelling with Hoechst 33342 (Invitrogen, ref H3570). 100 μl of Hoechst 33342 diluted to 1/5000th in PBS are added to each well for 30 min at ambient temperature on non-fixed cells. The nuclei are detected by fluorescence at 350 nm at ×2 magnification with an Operetta (PerkinElmer) using the Acapella (PerkinElmer) imaging software and analysed using the Columbus (PerkinElmer) image analysis software. The percentage inhibition of the cell proliferation is calculated by considering the number of nuclei present in the wells in which the TCC97-7 cells are cultured in the absence of FGF-R antagonists to be 0% inhibition. 100% inhibition would correspond to a well no longer containing cells.

Where a name gives a salt, the structure may show the parent alone.

`CCCn1c(=O)[nH]c2ccc(C(=O)c3nc(NS(C)(=O)=O)c4ccccn34)cc2c1=O` [compound 13, N-{3-[(2,4-dioxo-3-propyl-1,2,3,4-tetrahydroquinazolin-6-yl)carbonyl]imidazo[1,5-a]pyridin-1-yl}methanesulphonamide] returned a melting point of 334 °C.

The compound `Cn1c(=O)n(Cc2ccc(F)cc2)c(=O)c2cc(C(=O)c3nc(-c4cccnc4)c4ccccn34)ccc21` (as salt: hydrochloride) [compound 112, 3-(4-Fluorobenzyl)-1-methyl-6-[(1-pyridin-3-ylimidazo[1,5-a]pyridin-3-yl)carbonyl]quinazoline-2,4(1H, 3H)-dione] gave a melting point of 267 °C.

`CN(C)CCNC(=O)c1cccc(-c2nc(C(=O)c3ccc4c(c3)c(=O)n(Cc3ccc(F)cc3)c(=O)n4C)n3ccccc23)c1.Cl` [compound 116, N-[2-(dimethylamino)ethyl]-3-(3-{[3-(4-fluorobenzyl)-1-methyl-2,4-dioxo-1,2,3,4-tetrahydroquinazolin-6-yl]carbonyl}imidazo[1,5-a]pyridin-1-yl)benzamide hydrochloride] yielded a melting point of 247 °C. For the same compound, in data set [1], the inhibition at 0.1 µM worked out at 6%, the inhibition at 1 µM was 9% and the inhibition at 10 µM was determined as 95%. For the same compound, in data set [2], the cytotoxicity at 3 days, 0.01 µM was determined as 2%; the cytotoxicity at 3 days, 0.1 µM was determined as 2%; the cytotoxicity at 3 days, 1 µM turned out to be 2%; the cytotoxicity at 3 days, 10 µM amounted to 3%. Further, in data set [3], the inhibition at 0.01 µM was -1%, the inhibition at 0.1 µM is -3%, the inhibition at 1 µM was determined as 22% and the inhibition at 10 µM was 83%.

With `O=C(c1ccc2nc[nH]c(=O)c2c1)c1ncc2ccccn12` [compound 3, 6-(Imidazo[1,5-a]pyridin-3-ylcarbonyl)quinazolin-4(3H)-one], the melting point turned out to be 289 °C.

On to `CCCn1c(=O)[nH]c2ccc(C(=O)c3ncc4ccc(C(=O)O)cn34)cc2c1=O` [compound 8, 3-[(2,4-Dioxo-3-propyl-1,2,3,4-tetrahydroquinazolin-6-yl)carbonyl]imidazo[1,5-a]pyridine-6-carboxylic acid], for which the melting point stood at 384 °C.

In the case of `CCCn1c(C)nc2ccc(C(=O)c3nc(-c4cccc(C(N)=O)c4)c4ccccn34)cc2c1=O` [compound 55, 3-{3-[(2-Methyl-4-oxo-3-propyl-3,4-dihydroquinazolin-6-yl)carbonyl]imidazo[1,5-a]pyridin-1-yl}benzamide], in data set [1], the inhibition at 0.1 µM came to 11%, the inhibition at 1 µM came out at 17% and the inhibition at 10 µM came to 57%. In data set [2], the cytotoxicity at 3 days, 0.01 µM turned out to be 5%; the cytotoxicity at 3 days, 0.1 µM came out at 5%; the cytotoxicity at 3 days, 1 µM was found to be 6%; the cytotoxicity at 3 days, 10 µM is 6%. Also, in data set [3], the inhibition at 0.01 µM amounted to 3%, the inhibition at 0.1 µM is -2%, the inhibition at 1 µM came out at 29% and the inhibition at 10 µM came to 47%.

With `Cl.Cn1c(=O)n(Cc2ccc(F)cc2)c(=O)c2cc(C(=O)c3nc(-c4cccc(C(=O)OCCN5CCOCC5)c4)c4ccccn34)ccc21`, the melting point turned out to be 215 °C.

The values above are taken from patent publication US9732078B2, “Therapeutic use of imidazopyridine derivatives” (SANOFI, priority 2012, dated 2017).
